Data: patent US6696433B2, “Use of sex steroids function modulators to treat wounds and fibrotic disorders” (Renovo Limited, priority 1996, dated 2004)
Marks after values point to notes of the source that are not given here.

Legend:
[1] = test system: TGF-β1 secreted by dermal fibroblasts; experiment: TGF-β levels in fibroblast conditioned media, mink lung cell growth inhibition assay; assay type: cell-based, human; conditions: for TGF-beta LEVELS: 24 hr; for active TGF-β1 (non-heat-activated samples): fibroblast conditioned media after 24 hr treatment, compared to control; for FOLD INDUCTION of TGF-beta levels: relative to control
Experimental: Human dermal fibroblasts were explanted from the 4 mm punch biopsy specimens of normal skin. Fibroblasts used in the study were cultured at 37° C. in 95% air; 5% CO2 at 100% relative humidity, in phenol red-free DMEM (Gibco), 100 U/ml penicillin, […], 1 mM sodium pyruvate, 2 mM L-glutamine, non-essential amino acids and charcoal-stripped 10% FCS (Gibco, UK) (to remove endogenous steroids).
Cultured cells at passage 3-5 were seeded overnight in 24-well plates at a density of 2×10^5 cells per well in serum free media. The following morning oestrogen or progesterone (made soluble by the incorporation of the carrier cyclodextrin; Sigma, Poole), ranging from 1 pM to 1 mM doses, were added to the medium for 24 hrs. All samples were assessed in triplicate. The media was removed after the 24 hr incubation. 1 mg/ml of aprotinin, leupeptin and pepstatin A was then added to the media which was used immediately in a TGF-β assay (see below). Controls included cyclodextrin at the appropriate concentration, and serum-free medium alone.
TGF-β levels in the media (2.1.5.2) were determined using a mink lung growth inhibition assay as described by Danielpour et al, (J Cell Physiol, 138 p79-86) Briefly, mink lung epithelial cells (MLECs) were maintained in DMEM and 10% FCS at 37° C. in 10% CO2. Subconfluent cells were trypsinized, resuspended in 10% FCS, pelleted at 500 g for 5 min, washed with 10 ml of assay buffer (DMEM, 2% FCS, 10 mM HEPES pH 7.4, penicillin 25 U/ml, streptomycin 25 μg/ml), resuspended in assay buffer and seeded at 10^5 cells/well in a 24-well Costar plate. After 1 hr conditioned media or control media (with varying concentrations of hormones ranging from 1 pM-1 mM or cyclodextrin alone) were added, 22 hrs later cells were pulsed with [^3H] thymidine (0.5 μCi/well) for 2 hrs at 37° C., and the procedure described above for the extraction and measurement of radioactivity followed (2.1.5.3). A standard curve was produced using 10-1000 pg/ml TGF-β standard (R&D) from which inhibition data could be converted to pg/ml. Results were presented as pg/ml TGF-β/10^5 cells (relative to control valves for each individual hormone concentration).

[2] = test system: elastase; experiment: Wound elastase activity: fibronectin zymography, immunoblotting and elastase substrate degradation; assay type: in vivo, human; conditions: day 7 wounds compared to placebo
Experimental: Proteases responsible for fibronectin degradation were identified by zymography using fibronectin-containing acrylamide gels (12% acrylamide and 0.33 mg/ml fibronectin, Central Blood Products Ltd). Tissue samples were lyophilized and homogenized using a ground glass homogenizer containing 0.5 ml buffer (100 mM Tris/HCl, 6M Urea, 15 mM CaCl2, 0.25% Triton-X100, pH 7.4). After centrifugation at 11,000 rpm for 10 min at 4° C. samples (20 μg dry wt) were incubated for 30 min at 37° C. with 2× Laemmli sample buffer and subjected to electrophoresis under non-reducing conditions (Laemmli, 1970). After electrophoresis, the gels were washed twice with 2.5% Triton-X100 for 1 hr to remove SDS. The gels were briefly washed with double distilled water and incubated for 18 h at 37° C. in developing buffer containing 50 mM Tris/HCl, 150 mM NaCl and 5 mM CaCl2, pH 7.4. At the end of incubation the gels were stained with 0.5% Coomassie brilliant blue and destained. […]
Tissue samples (20 μg dry wt) and human neutrophil elastase (0.01-0.3 μg/ml) were incubated for up to 1 h at 37° C. in 200 μl of 0.1M Hepes buffer, pH 7.5, containing 0.5M NaCl, 10% dimethylsulfoxide and 0.1 mM elastase substrate (methoxysuccinyl-ala-ala-pro-val-p-nitroanilide; Calibiochem Co;). Substrate degradation was determined by measuring OD410 (Dynatech MR5000). […] Results were expressed as ng/ml elastase activity/20 μg dry wt.

[3] = test system: 4 mm punch biopsy wounds of the upper inner arm; experiment: Topical oestrogen patch clinical trial of wound healing in elderly men and women; assay type: in vivo, human; parameters: key to Collagen Quantities: +=minimal quantities; ++=less than normal skin; +++=similar to normal skin; ++++=greater than normal skin; conditions: for Collagen Quantities: oestradiol patch, DAY 80
[4] = test system: full thickness incisional wounds; experiment: Incisional wound healing in OVX and sham rats, histology at day 7 post-wounding; assay type: in vivo, Female Sprague Dawley rats; conditions: day 7 wound from an intact female rat treated with oestrogen
[5] = OLD person (2A or 2B) fibroblasts, mM dose
[6] = OLD person (2A or 2B) fibroblasts, nM dose
[7] = OLD person (2A or 2B) fibroblasts, pM dose
[8] = OLD person (2A or 2B) fibroblasts, μM dose
[9] = YOUNG person (2C) fibroblasts, mM dose
[10] = YOUNG person (2C) fibroblasts, nM dose
[11] = YOUNG person (2C) fibroblasts, pM dose
[12] = YOUNG person (2C) fibroblasts, μM dose

| Compound | TGF-beta LEVELS [1, 5] [pg/ml/10^5 cell/24 hr] | TGF-beta LEVELS [1, 6] [pg/ml/10^5 cell/24 hr] | TGF-beta LEVELS [1, 7] [pg/ml/10^5 cell/24 hr] | TGF-beta LEVELS [1, 8] [pg/ml/10^5 cell/24 hr] | TGF-beta LEVELS [1, 9] [pg/ml/10^5 cell/24 hr] | TGF-beta LEVELS [1, 10] [pg/ml/10^5 cell/24 hr] | TGF-beta LEVELS [1, 11] [pg/ml/10^5 cell/24 hr] | TGF-beta LEVELS [1, 12] [pg/ml/10^5 cell/24 hr] | active TGF-β1 (non-heat-activated samples) [1] | also measured |
| --- | --- | --- | --- | --- | --- | --- | --- | --- | --- | --- |
| C[C@]12CC[C@@H]3c4ccc(O)cc4CC[C@H]3[C@@H]1CC[C@@H]2O [Oestrogen] | 416 ± 80 | 280 ± 60 | 80 ± 50 | 315 ± 47 | 428 ± 58 | 312 ± 30 | 118 ± 24 | 282 ± 22 | no increase | elastase activity (synthetic elastase substrate degradation assay) [2]: significantly reduced; Collagen Quantities ([3]; FEMALES (3A)): ++++; Collagen Quantities ([3]; MALES (3C)): ++++; Collagen levels ([3]; day 7 and day 80 post-wounding, both sexes (3A and 3C) compared to placebo): consistently increased; wound healing in stained sections (FIG. 1 c) [4]: improved wound healing |
| CC(=O)[C@H]1CC[C@H]2[C@@H]3CCC4=CC(=O)CC[C@]4(C)[C@H]3CC[C@]12C [Progesterone, progesterone] | 33 ± 13 | 90 ± 38 | 32 ± 13 | 65 ± 15 | 82 ± 13 | 115 ± 20 | 70 ± 31 | 96 ± 13 | no increase | FOLD INDUCTION of TGF-beta levels [1, 5]: 1; FOLD INDUCTION of TGF-beta levels [1, 6]: 2.6*; FOLD INDUCTION of TGF-beta levels [1, 7]: 1; FOLD INDUCTION of TGF-beta levels [1, 8]: 2*; FOLD INDUCTION of TGF-beta levels [1, 9]: 0.8; FOLD INDUCTION of TGF-beta levels [1, 10]: 1; FOLD INDUCTION of TGF-beta levels [1, 11]: 0.6; FOLD INDUCTION of TGF-beta levels [1, 12]: 1; increase in TGF-β1 levels ([1]; nM and μM doses, fibroblasts from the aged subjects (2A or 2B)): 2 fold; effect on TGF-β1 production compared to controls ([1]; young fibroblasts (Group 2C)): no significant effect |
